Key:
[1] = Inhibition of Leishmania mexicana CRK3/CYC6
CDK2/Cyclin A2 = CDK2/Cyclin A2 (Homo sapiens, UniProt P24941); assay: Inhibition of human CDK2/Cyclin A; format: protein-complex assay
[2] = Inhibition of Trypanosoma brucei PTR1 by spectrophotometry; conditions: read-out: Ki(app)
[3] = Inhibition of Trypanosoma brucei trypanothione synthase
Trypanosoma brucei [4] = assay: Inhibition of blood stream form of Trypanosoma brucei overexpressing trypanothione synthase after 72 hrs; format: functional, organism-based
Trypanosoma brucei [5] = assay: Inhibition of blood stream form of trypanothione synthase single knockout Trypanosoma brucei after 72 hrs; format: functional, organism-based
Trypanosoma brucei [6] = assay: Inhibition of wild type blood stream form of Trypanosoma brucei expressing trypanothione synthase after 72 hrs; format: functional, organism-based

Row | IC50 [1] [µM] | IC50 (CDK2/Cyclin A2) [µM] | Ki [2] [µM] | Compound | other results
1 | 0.34 | > 100 | – | O=C(Nc1cc(-c2ccc(Cl)cc2)n[nH]1)C1CCCCC1 | –
2 | – | – | 228 | Nc1nc2ccccc2[nH]1 | –
3 | – | – | 11 | Nc1nc2ccc(Cl)cc2[nH]1 | –
4 | 0.04 | > 100 | – | COc1cccc(NC(=O)NC2=CC(=O)CC(C)(C)C2)c1 | –
5 | < 0.005 | > 100 | – | Cc1cccc(-c2ccc3nc(NC(=O)CCC4CCCC4)nn3c2)c1 | –
6 | – | – | – | CN(C)CCCNC(=O)Cn1nc(-c2cccc(F)c2)c2ccccc21 | IC50 [3]: 0.045 µM; EC50 (Trypanosoma brucei [4]): 23 µM; EC50 (Trypanosoma brucei [5]): 1.2 µM; EC50 (Trypanosoma brucei [6]): 7 µM
